How the values were obtained:
rape = assay: Test B pre/postemergence rape; assay type: in vivo, Brassica napus; conditions: for Plant response rating, Rape: scale of 0 to 10 where 0 is no effect and 10 is complete control
In short: (§1)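 Herbicidal effect was estimated by eye on a ten-point control scale after plants spent twelve to sixteen days in a greenhouse following soil or foliar treatment. Foliar sprays targeted plants at one to four leaves; all doses were formulated in a non-phytotoxic solvent with surfactant.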

cocklebur = assay: Test B pre/postemergence cocklebur; assay type: in vivo, Xanthium strumarium
In short: as §1

pigweed = assay: Test B pre/postemergence pigweed; assay type: in vivo, Amaranthus retroflexus; conditions: for Plant response rating, Redroot pigweed: scale of 0 to 10 where 0 is no effect and 10 is complete control
In short: as §1

sugar beet = assay: Test B pre/postemergence sugar beet; assay type: in vivo, Beta vulgaris; conditions: for Plant response rating, Sugarbeets: scale of 0 to 10 where 0 is no effect and 10 is complete control
In short: as §1

velvetleaf = assay: Test B pre/postemergence velvetleaf; assay type: in vivo, Abutilon theophrasti; conditions: for Plant response rating, Velvetleaf: scale of 0 to 10 where 0 is no effect and 10 is complete control
In short: as §1

wheat = assay: Test B pre/postemergence wheat; assay type: in vivo, Triticum aestivum; conditions: for Plant response rating, Wheat: scale of 0 to 10 where 0 is no effect and 10 is complete control
In short: as §1

morningglory = assay: Test B pre/postemergence morningglory; assay type: in vivo, Ipomoea hederacea; conditions: for Plant response rating, Morningglory: scale of 0 to 10 where 0 is no effect and 10 is complete control
In short: as §1

surinam grass = assay: Test B pre/postemergence surinam grass; assay type: in vivo, Brachiaria decumbens
In short: as §1

smallflower flatsedge = assay: Test B flood test smallflower flatsedge; assay type: in vivo, Cyperus difformis
In short: (§2)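 Read-out is a visual response score from 0 (no effect) to 10 (complete control), assigned by comparison with untreated controls. Treatment was applied at the 2-leaf stage, and plants stayed in the greenhouse for twelve to sixteen days before scoring.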

blackgrass = assay: Test B pre/postemergence blackgrass; assay type: in vivo, Alopecurus myosuroides
In short: as §1

wild oat = assay: Test B pre/postemergence wild oat; assay type: in vivo, Avena fatua; conditions: for Plant response rating, Wild oats: scale of 0 to 10 where 0 is no effect and 10 is complete control
In short: as §1

crabgrass = assay: Test B pre/postemergence crabgrass; assay type: in vivo, Digitaria sanguinalis
In short: as §1

purple nutsedge = assay: Test B pre/postemergence purple nutsedge; assay type: in vivo, Cyperus rotundus
In short: as §1

corn = assay: Test B pre/postemergence corn; assay type: in vivo, Zea mays
In short: as §1

duck salad = assay: Test B flood test duck salad; assay type: in vivo, Heteranthera limosa
In short: as §2

[1] = Postemergence, Rate 250 g/ha, scale 0 to 10
[2] = Preemergence, Rate 250 g/ha, scale 0 to 10, 0 is no effect, 10 is complete control
[3] = Preemergence, Rate 500 g/ha, scale 0 to 10, 0 is no effect, 10 is complete control
[4] = Rate 62 g/ha, Postemergence, scale 0 to 10, 0 no effect, 10 complete control
[5] = Rate 125 g/ha, Postemergence, scale 0 to 10, 0 is no effect, 10 is complete control
[6] = Postemergence, Rate 500 g/ha, scale of 0 to 10 where 0 is no effect and 10 is complete control
[7] = Preemergence, Rate 62 g/ha, scale of 0 to 10 where 0 is no effect and 10 is complete control
[8] = Preemergence, Rate 125 g/ha, scale of 0 to 10 where 0 is no effect and 10 is complete control
[9] = Rate 62 g/ha, flood test species, Pre-emergence, visual evaluation after twelve to sixteen days
[10] = Rate 125 g/ha, under heading Pre-emergence, flood test species, visual evaluation after twelve to sixteen days
[11] = Rate 250 g/ha, Pre-emergence (flood test species), scale 0 to 10, 0 is no effect, 10 is complete control
[12] = Rate 500 g/ha, Pre-emergence, flood test species, scale 0 to 10 (0 no effect, 10 complete control)

For `CCC=CCn1c(=O)on(C(=O)N(c2ccccc2)C(C)C)c1=O` [Compound 454], the “Rape plant response rating” value (rape; [1]) was 0, the “Plant response rating, Rape” value (rape; Preemergence, Rate 62 g/ha) was 0 and the “Plant response rating, Rape” value (rape; Preemergence, Rate 125 g/ha) was 0. The “Rape plant response rating” value (rape; [2]) was 0, the “Rape plant response rating” value (rape; [3]) was 0 and the “Rape plant response rating” value (rape; [4]) was 0. For the same compound, the “Rape plant response rating” value (rape; [5]) was 0, the “Cocklebur plant response rating” value (cocklebur; [1]) was 0 and the “Cocklebur plant response rating” value (cocklebur; [6]) was 0. The “Plant response rating, Cocklebur” value (cocklebur; [7]) was 0, the “Plant response rating, Cocklebur” value (cocklebur; [8]) was 0 and the “Cocklebur plant response rating” value (cocklebur; [2]) was 0. The “Cocklebur plant response rating” value (cocklebur; [3]) was 0, the “Cocklebur plant response rating” value (cocklebur; [4]) was 0 and the “Cocklebur plant response rating” value (cocklebur; [5]) was 0. The “Redroot pigweed plant response rating” value (pigweed; [1]) was 2, the “Plant response rating, Redroot pigweed” value (pigweed; Preemergence, Rate 62 g/ha) was 0 and the “Plant response rating, Redroot pigweed” value (pigweed; Preemergence, Rate 125 g/ha) was 2. For the same compound, the “Redroot pigweed plant response rating” value (pigweed; [2]) was 9, the “Redroot pigweed plant response rating” value (pigweed; [3]) was 10 and the “Redroot pigweed plant response rating” value (pigweed; [4]) was 0. For the same compound, the “Redroot pigweed plant response rating” value (pigweed; [5]) was 0, the “Sugarbeets plant response rating” value (sugar beet; [1]) was 0 and the “Plant response rating, Sugarbeets” value (sugar beet; Preemergence, Rate 62 g/ha) was 0. The “Plant response rating, Sugarbeets” value (sugar beet; Preemergence, Rate 125 g/ha) was 0, the “Sugarbeets plant response rating” value (sugar beet; [2]) was 0 and the “Sugarbeets plant response rating” value (sugar beet; [3]) was 0. For the same compound, the “Sugarbeets plant response rating” value (sugar beet; [4]) was 0, the “Sugarbeets plant response rating” value (sugar beet; [5]) was 0 and the “Velvetleaf plant response rating” value (velvetleaf; [1]) was 0. For the same compound, the “Plant response rating, Velvetleaf” value (velvetleaf; Preemergence, Rate 62 g/ha) was 0, the “Plant response rating, Velvetleaf” value (velvetleaf; Preemergence, Rate 125 g/ha) was 0 and the “Velvetleaf plant response rating” value (velvetleaf; [2]) was 5. The “Velvetleaf plant response rating” value (velvetleaf; [3]) was 6, the “Velvetleaf plant response rating” value (velvetleaf; [4]) was 0 and the “Velvetleaf plant response rating” value (velvetleaf; [5]) was 0. For the same compound, the “Wheat plant response rating” value (wheat; [1]) was 0, the “Plant response rating, Wheat” value (wheat; Preemergence, Rate 62 g/ha) was 0 and the “Plant response rating, Wheat” value (wheat; Preemergence, Rate 125 g/ha) was 0. The “Wheat plant response rating” value (wheat; [2]) was 0, the “Wheat plant response rating” value (wheat; [3]) was 0 and the “Wheat plant response rating” value (wheat; [4]) was 0. The “Wheat plant response rating” value (wheat; [5]) was 0, the “Morningglory plant response rating” value (morningglory; [1]) was 10 and the “Plant response rating, Morningglory” value (morningglory; Preemergence, Rate 62 g/ha) was 0. For the same compound, the “Plant response rating, Morningglory” value (morningglory; Preemergence, Rate 125 g/ha) was 0, the “Morningglory plant response rating” value (morningglory; [2]) was 0 and the “Morningglory plant response rating” value (morningglory; [3]) was 0. For the same compound, the “Morningglory plant response rating” value (morningglory; [4]) was 7, the “Morningglory plant response rating” value (morningglory; [5]) was 9 and the “B. signalgrass plant response rating” value (surinam grass; Postemergence, Rate 250 g/ha, scale 0 to 10, 0 no effect, 10 complete control) was 0. The “B. signalgrass plant response rating” value (surinam grass; [6]) was 2, the “Plant response rating, B. signalgrass” value (surinam grass; [7]) was 0 and the “Plant response rating, B. signalgrass” value (surinam grass; [8]) was 0. The “B. signalgrass plant response rating” value (surinam grass; [2]) was 4, the “B. signalgrass plant response rating” value (surinam grass; [3]) was 4 and the “B. signalgrass plant response rating” value (surinam grass; [4]) was 0. For the same compound, the “B. signalgrass plant response rating” value (surinam grass; [5]) was 0, the “Plant response rating, S. Flatsedge (0 to 10 scale, 0 is no effect, 10 is complete control)” value (smallflower flatsedge; [9]) was 0 and the “S. Flatsedge plant response rating (0 to 10 scale, 0 is no effect, 10 is complete control)” value (smallflower flatsedge; [10]) was 0. The “S. Flatsedge plant response rating” value (smallflower flatsedge; [11]) was 0, the “S. Flatsedge plant response rating” value (smallflower flatsedge; [12]) was 0 and the “Blackgrass plant response rating” value (blackgrass; [1]) was 2. For the same compound, the “Blackgrass plant response rating” value (blackgrass; [6]) was 2, the “Plant response rating, Blackgrass” value (blackgrass; [7]) was 0 and the “Plant response rating, Blackgrass” value (blackgrass; [8]) was 0. For the same compound, the “Blackgrass plant response rating” value (blackgrass; [2]) was 2, the “Blackgrass plant response rating” value (blackgrass; [3]) was 6 and the “Blackgrass plant response rating” value (blackgrass; [4]) was 0. The “Blackgrass plant response rating” value (blackgrass; [5]) was 0, the “Wild oats plant response rating” value (wild oat; [1]) was 0 and the “Plant response rating, Wild oats” value (wild oat; Preemergence, Rate 62 g/ha) was 0. For the same compound, the “Plant response rating, Wild oats” value (wild oat; Preemergence, Rate 125 g/ha) was 0, the “Wild oats plant response rating” value (wild oat; [2]) was 0 and the “Wild oats plant response rating” value (wild oat; [3]) was 2. For the same compound, the “Wild oats plant response rating” value (wild oat; [4]) was 0, the “Wild oats plant response rating” value (wild oat; [5]) was 0 and the “Crabgrass plant response rating” value (crabgrass; [1]) was 3. The “Crabgrass plant response rating” value (crabgrass; [6]) was 9, the “Plant response rating, Crabgrass” value (crabgrass; [7]) was 2 and the “Plant response rating, Crabgrass” value (crabgrass; [8]) was 3. For the same compound, the “Crabgrass plant response rating” value (crabgrass; [2]) was 8, the “Crabgrass plant response rating” value (crabgrass; [3]) was 9 and the “Crabgrass plant response rating” value (crabgrass; [4]) was 2. For the same compound, the “Nutsedge plant response rating” value (purple nutsedge; [1]) was 0, the “Plant response rating, Nutsedge” value (purple nutsedge; [7]) was 0 and the “Nutsedge plant response rating” value (purple nutsedge; [2]) was 0. For the same compound, the “Nutsedge plant response rating” value (purple nutsedge; [3]) was 0, the “Nutsedge plant response rating” value (purple nutsedge; [4]) was 0 and the “Nutsedge plant response rating” value (purple nutsedge; [5]) was 0. For the same compound, the “Corn plant response rating” value (corn; [1]) was 0, the “Corn plant response rating” value (corn; [6]) was 0 and the “Plant response rating, Corn” value (corn; [7]) was 0. The “Plant response rating, Corn” value (corn; [8]) was 0, the “Corn plant response rating” value (corn; [2]) was 0 and the “Corn plant response rating” value (corn; [3]) was 3. The “Corn plant response rating” value (corn; [4]) was 0, the “Corn plant response rating” value (corn; [5]) was 0 and the “Plant response rating, Ducksalad (0 to 10 scale, 0 is no effect, 10 is complete control)” value (duck salad; [9]) was 0. The “Ducksalad plant response rating (0 to 10 scale, 0 is no effect, 10 is complete control)” value (duck salad; [10]) was 0, the “Ducksalad plant response rating” value (duck salad; [11]) was 0 and the “Ducksalad plant response rating” value (duck salad; [12]) was 0.
